Assay results from the NIST ThermoML archive (doi:10.1021/je900478c).

Test: xn = mol fraction of the nth substance listed
Details: 101 kPa, Liquid; for viscosity: Capillary tube (Ostwald / Ubbelohde) method

CCCCCCOCCOCCO [2-(2-hexyloxyethoxy)ethanol] + O
mass density [kg/m3]
Details | 283.15 K | 288.15 K | 293.15 K | 303.15 K | 313.15 K
x1 = 0.0005 | 999.68 | 999.08 | 998.19 | 995.64 | 992.26
x1 = 0.00075 | 999.67 | 999.06 | 998.17 | 995.59 | 992.23
x1 = 0.001 | 999.66 | 999.07 | 998.17 | 995.58 | 992.18
x1 = 0.00118 | 999.7 | 999.09 | 998.17 | 995.57 | 992.11
x1 = 0.00135 | 999.76 | 999.14 | 998.2 | 995.58 | 992.03
x1 = 0.0015 | 999.84 | 999.17 | 998.16 | 995.51 | 991.94
x1 = 0.00164 | 999.86 | 999.18 | 998.09 | – | –
x1 = 0.00196 | 999.87 | 999.15 | – | – | –
x1 = 0.00225 | 999.88 | 999.08 | – | – | –
x1 = 0.01501 | 995.9 | – | – | – | –
x1 = 0.01996 | 994.71 | – | – | – | –
x1 = 0.02493 | 993.53 | – | – | – | –
x1 = 0.03004 | 992.45 | – | – | – | –
x1 = 0.03536 | 991.13 | – | – | – | –
x1 = 0.03996 | 990.1 | – | – | – | –
x1 = 0.04496 | 989.11 | – | – | – | –
x1 = 0.0501 | 988.12 | 985.54 | – | – | –
x1 = 0.05911 | 986.43 | 983.76 | – | – | –
x1 = 0.06985 | 984.69 | 982.01 | 979.28 | – | –
x1 = 0.07977 | 983.2 | 980.24 | 977.23 | – | –
x1 = 0.08835 | 982.02 | 978.92 | 975.77 | – | –
x1 = 0.09988 | 980.51 | 977.4 | 973.98 | – | –
x1 = 0.1332 | 976.63 | 973.14 | 969.58 | 962.38 | –
x1 = 0.2029 | 970.18 | 966.49 | 962.68 | 955.04 | 947.26
x1 = 0.2856 | 964.36 | 960.42 | 956.52 | 948.66 | 940.71
x1 = 0.3597 | 960.18 | 956.18 | 952.21 | 944.22 | 936.21
x1 = 0.4529 | 955.83 | 951.8 | 947.82 | 939.82 | 931.76
x1 = 0.5426 | 952.4 | 948.39 | 944.4 | 936.42 | 928.33
x1 = 0.6772 | 948.33 | 944.25 | 940.24 | 932.25 | 924.21
x1 = 0.827 | 945.13 | 941.05 | 937.03 | 929.05 | 921.02
x1 = 1 | 942.09 | 938.05 | 934.06 | 926.08 | 918.17

CCCCOCCO [2-butoxyethan-1-ol] + O
Details | mass density, 283.15 K [kg/m3] | mass density, 293.15 K [kg/m3] | mass density, 303.15 K [kg/m3] | mass density, 313.15 K [kg/m3] | mass density, 323.15 K [kg/m3] | viscosity, 283.15 K [mPa·s] | viscosity, 293.15 K [mPa·s] | viscosity, 303.15 K [mPa·s] | viscosity, 313.15 K [mPa·s] | viscosity, 323.15 K [mPa·s]
x1 = 0.0005 | 999.62 | 998.13 | 995.57 | 992.12 | – | – | – | – | – | –
x1 = 0.001 | 999.53 | 998.01 | 995.46 | 992.02 | – | – | – | – | – | –
x1 = 0.00201 | 999.43 | 997.89 | 995.29 | 991.8 | – | – | – | – | – | –
x1 = 0.003 | 999.37 | 997.78 | 995.12 | 991.58 | – | – | – | – | – | –
x1 = 0.00399 | 999.24 | 997.6 | 994.89 | 991.31 | – | – | – | – | – | –
x1 = 0.005 | 999.06 | 997.34 | 994.59 | 990.98 | – | – | – | – | – | –
x1 = 0.00601 | 998.89 | 997.11 | 994.27 | 990.64 | – | – | – | – | – | –
x1 = 0.00699 | 998.86 | 996.97 | 994.06 | 990.36 | – | – | – | – | – | –
x1 = 0.00801 | 998.8 | 996.83 | 993.86 | 990.11 | – | – | – | – | – | –
x1 = 0.00896 | 998.72 | 996.7 | 993.69 | 989.86 | – | – | – | – | – | –
x1 = 0.00998 | 998.68 | 996.57 | 993.5 | 989.6 | – | – | – | – | – | –
x1 = 0.01102 | 998.64 | 996.43 | 993.3 | 989.31 | – | – | – | – | – | –
x1 = 0.01209 | 998.59 | 996.3 | 993.09 | 988.99 | – | – | – | – | – | –
x1 = 0.01317 | 998.55 | 996.16 | 992.85 | 988.65 | – | – | – | – | – | –
x1 = 0.01401 | 998.49 | 996.02 | 992.63 | 988.37 | – | – | – | – | – | –
x1 = 0.01499 | 998.49 | 995.91 | 992.38 | 988.01 | – | – | – | – | – | –
x1 = 0.01959 | 998.45 | 994.9 | 990.79 | 985.95 | – | – | – | – | – | –
x1 = 0.02529 | 997 | 992.94 | 988.38 | 983.21 | – | – | – | – | – | –
x1 = 0.0307 | 995.31 | 990.88 | 986.03 | 980.66 | – | – | – | – | – | –
x1 = 0.03495 | 993.94 | 989.28 | 984.22 | 978.71 | – | – | – | – | – | –
x1 = 0.04047 | 992.16 | 987.22 | 981.99 | 976.24 | – | – | – | – | – | –
x1 = 0.04524 | 990.59 | 985.5 | 980.12 | 974.25 | – | – | – | – | – | –
x1 = 0.04961 | 989.23 | 983.99 | 978.47 | 972.5 | – | – | – | – | – | –
x1 = 0.05991 | 986.08 | 980.54 | 974.75 | 968.52 | – | – | – | – | – | –
x1 = 0.06979 | 983.28 | 977.49 | 971.48 | 965.02 | – | – | – | – | – | –
x1 = 0.07979 | 980.63 | 974.61 | 968.38 | 961.77 | – | – | – | – | – | –
x1 = 0.08979 | 978.05 | 971.87 | 965.46 | 958.67 | – | – | – | – | – | –
x1 = 0.1003 | 975.52 | 969.12 | 962.59 | 955.66 | – | 5.489 | 3.791 | 2.772 | 2.126 | –
x1 = 0.2 | 957.51 | 950.15 | 942.62 | 934.8 | 926.83 | 7.107 | 4.854 | 3.483 | 2.584 | 1.979
x1 = 0.3 | 945.28 | 937.5 | 929.57 | 921.47 | 913.23 | 7.415 | 5.079 | 3.64 | 2.698 | 2.054
x1 = 0.4 | 935.77 | 927.76 | 919.6 | 911.3 | 902.87 | 7.234 | 4.994 | 3.594 | 2.672 | 2.038
x1 = 0.5 | 928.69 | 920.54 | 912.16 | 903.78 | 895.22 | 6.83 | 4.761 | 3.448 | 2.583 | 1.981
x1 = 0.6 | 923.16 | 914.96 | 906.6 | 898.14 | 889.56 | 6.352 | 4.476 | 3.272 | 2.465 | 1.901
x1 = 0.7 | 918.7 | 910.49 | 902.02 | 893.57 | 884.96 | 5.857 | 4.172 | 3.079 | 2.337 | 1.813
x1 = 0.7999 | 915.01 | 906.78 | 898.3 | 889.84 | 881.26 | 5.36 | 3.865 | 2.879 | 2.205 | 1.721
x1 = 0.9 | 912.08 | 903.8 | 895.3 | 886.83 | 878.23 | 4.885 | 3.56 | 2.679 | 2.068 | 1.629
x1 = 1 | 909.49 | 901.18 | 892.68 | 884.21 | 875.6 | 4.46 | 3.288 | 2.499 | 1.946 | 1.543
